Data on two molecules can be found in paper PMC10811744 (Molecular cancer therapeutics, 2023).

One data set deals with SOX2, and OCT4. Nature of the data set: Western blotting of stemness markers in GSCs. In kind it is cell-based, human. On the technique in general: In western blotting, separated proteins are transferred to a membrane and probed.
In a further data set the target is ERα (Homo sapiens, UniProt P03372). Nature of the data set: ERE-Luc reporter gene assay in HEK293T cells expressing ERα. The data set is classed as cell-based. As to conditions: 24 hours.
ERα, sequence (P03372 whole entry): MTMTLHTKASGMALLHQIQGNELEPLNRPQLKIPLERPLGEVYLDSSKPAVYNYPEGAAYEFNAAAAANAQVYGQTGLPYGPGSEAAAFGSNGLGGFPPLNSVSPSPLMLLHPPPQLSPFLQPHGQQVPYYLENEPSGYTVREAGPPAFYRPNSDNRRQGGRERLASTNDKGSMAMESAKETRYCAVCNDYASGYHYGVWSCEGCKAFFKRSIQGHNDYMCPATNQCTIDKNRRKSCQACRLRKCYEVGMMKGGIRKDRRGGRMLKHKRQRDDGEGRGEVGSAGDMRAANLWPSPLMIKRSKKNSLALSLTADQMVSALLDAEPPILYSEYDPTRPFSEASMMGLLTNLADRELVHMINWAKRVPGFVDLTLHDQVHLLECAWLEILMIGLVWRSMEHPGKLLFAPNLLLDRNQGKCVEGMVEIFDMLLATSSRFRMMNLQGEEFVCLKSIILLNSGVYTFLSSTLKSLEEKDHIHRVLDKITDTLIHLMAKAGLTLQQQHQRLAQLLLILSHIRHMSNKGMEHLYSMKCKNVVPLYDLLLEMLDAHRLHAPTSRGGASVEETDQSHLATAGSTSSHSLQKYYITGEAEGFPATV
Data set [1] addresses T1, ERβ (Homo sapiens, UniProt Q92731). Nature of the data set: ERE-Luc reporter gene assay in HEK293T cells expressing ERβ. To be noted: 24 hours. In kind it is cell-based. A general note: Reporter assays use an easily measured gene product as a stand-in for the process of interest.
Data set [2] deals with U251 subcutaneous xenograft. To be noted: 20 mg/kg/day i.p.
Data set [3] deals with T1, ERβ. The data set is described as follows: ERE-Luc reporter gene assay in U251 GBM cells expressing ERβ. The data set is classed as cell-based. To be noted: 24 h.
Data set [4] has as its system GBM cells. The data set is described as follows: GBM cell viability. The data set is classed as cell-based, human. To be noted: read-out: GBM cell viability IC50.
Another data set deals with orthotopic U251 tumor. Nature of the data set: Orthotopic U251 xenograft model. The data set is classed as in vivo, mice. As to conditions: 50 mg/kg/i.p.
A further data set concerns normal human astrocytes. Nature of the data set: MTT cell viability assay, normal human astrocytes. The data set is classed as cell-based. In general terms: Tetrazolium dyes change colour on reduction, which living cells bring about.
In a further data set the test system is primary GSCs. Nature of the data set: CellTiter Glo cell viability assay, patient derived GSCs. In kind it is cell-based, human. To be noted: multiple primary GSCs.
The test system of data set [5] is GSC-040815 orthotopic tumor. Nature of the data set: Orthotopic xenograft model with patient-derived GSC-040815 cells. The data set is classed as in vivo, SCID mice. To be noted: 50 mg/kg/i.p.
The test system of data set [6] is U251 and U87 GBM model cells. The data set is described as follows: Matrigel invasion chamber assay. In kind it is cell-based, human. To be noted: 10μM, 22h.
In data set [7] the test system is GBM cells. Nature of the data set: Annexin V/PI apoptosis assay. In kind it is cell-based, human. To be noted: 20 μM.
Data set [8] relates to U251 GBM model cells expressing ERβ. Nature of the data set: MTT cell viability assay, U251 GBM model cells expressing ERβ. In kind it is cell-based, human. As to conditions: read-out: growth inhibitory activity IC50.
For data set [9], the system named is GSC-031417, GSC-012015, and GSC-040815 cells. Nature of the data set: Neurosphere formation assay. In kind it is cell-based, human. To be noted: 20 μM, three GSC model cells.
The next data set concerns ERβ target genes. Nature of the data set: RT-qPCR of ERβ target genes in patient derived GSCs. In kind it is cell-based, human. To be noted: 10 μM, 72h, GSC-040815, GSC-031417, RT-qPCR.
A further data set concerns U251- ERβ KO cells. The data set is described as follows: Invasion and colony formation of U251-ERβ KO cells. The data set is classed as cell-based, human.
The next data set has as its system U251-ERβ-KO cells. The data set is described as follows: MTT cell viability assay, U251-ERβ-KO cells. The data set is classed as cell-based, human.
Data set [10] deals with T1, ERβ. The data set is described as follows: PolarScreen ER competitive binding assay. To be noted: based on EC50 values from polar screen ERα and ERβ assays.
For data set [11] the following is noted: mouse, in vivo, ip, 20 mg/kg.
The test system of the next data set is U251 and U87 cells. The data set is described as follows: Colony formation. The data set is classed as cell-based, human. As to conditions: 10 μM.
A further data set has as its system U251 GBM cells. The data set is described as follows: MTT cell viability assay, WT U251 GBM cells. The data set is classed as cell-based, human.
The test system of data set [12] is GBM cells. To be noted: read-out: IC50 in GBM cells, no reference given; cited from earlier work.
The conditions of data set [13]: no reference given; cited from earlier work.

Values joined by “and” are separate entries in the source; they are usually repeats but may differ in a detail not shown here. Equal values may be shown once. Read-outs that look alike come from different tables or passages of the source.

T1 sequence (Q92731 whole entry): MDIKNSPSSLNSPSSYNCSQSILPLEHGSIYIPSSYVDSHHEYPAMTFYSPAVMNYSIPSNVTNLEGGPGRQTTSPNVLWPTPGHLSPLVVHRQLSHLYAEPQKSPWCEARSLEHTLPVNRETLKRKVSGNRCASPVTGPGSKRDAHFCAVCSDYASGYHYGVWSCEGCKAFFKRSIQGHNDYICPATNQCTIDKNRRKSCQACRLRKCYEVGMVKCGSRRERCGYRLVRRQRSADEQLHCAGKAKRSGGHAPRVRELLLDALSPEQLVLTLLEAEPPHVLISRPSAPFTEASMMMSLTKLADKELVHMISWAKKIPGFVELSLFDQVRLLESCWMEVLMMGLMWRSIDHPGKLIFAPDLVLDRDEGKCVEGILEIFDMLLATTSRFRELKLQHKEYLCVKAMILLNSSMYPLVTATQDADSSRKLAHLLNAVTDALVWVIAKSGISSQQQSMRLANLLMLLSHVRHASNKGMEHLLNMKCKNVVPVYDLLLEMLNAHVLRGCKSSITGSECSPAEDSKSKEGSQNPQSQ

With `CCN(CC)CCCC(C)NC(=O)c1ccc2c(c1)C(=O)c1ccccc1C2=O` (stereo not shown) [CIDD-0149897], the “expression of stemness markers” value in the data set with SOX2, and OCT4 was “reduced the expression of stemness markers”. In addition, on ERα, the ERα reporter activation entry is “no activation of ERα reporter”. Further, the values for the ERβ reporter activity entry on ERβ [1] and on ERβ [3] were “enhanced ERβ reporter activity in a dose dependent manner” and “enhanced ERβ reporter activity in a dose dependent manner in U251 GBM cells”, respectively. The “ERβ target genes in tumor tissues, RT-qPCR” value in data set [2] is on record as “significant increase”. The “tumor progression compared to vehicle” value in [2] (5 days/week) was “significantly reduced”. For the same molecule, the “tumor weights compared to vehicle” value in data set [2] (after 35 days of treatment) was “significantly smaller”. Also, the “Ki-67 positive proliferating cells, IHC” value (in data set [2] (tumors); with orthotopic U251 tumor (tumor sections)) was “fewer proliferating cells” each time. The IC50 (as a rule, the concentration needed to halve the response being measured) in the data set on GBM cells [4] is 7 to 15 µM; in [8] it was 7.4 µM and ~7.4 µM. Moreover, in the data set with orthotopic U251 tumor, the “survival of orthotopic U251 tumor bearing mice” value is listed as “significantly increased the survival”. For the same molecule, the “effect on viability of normal human astrocytes” value is on record as “little to no effect” with normal human astrocytes and “no/limited effect” in the data set on normal human astrocytes (listed as CIDD-014987). Moreover, in the data set with primary GSCs, the “cytotoxic activity against primary GSCs” value is listed as “potent cytotoxic activity”. Besides, the “Ki-67 positive cells, IHC” value in data set [5] is “significantly decreased”. For the same molecule, in [5], the “survival of GSC tumor-bearing mice” value was “significantly enhanced the survival”. Moreover, in data set [6], the GBM cells invasion entry was “significantly reduced”. In addition, the “apoptosis of GBM cells” value with GBM cells [7] is given as “significantly promoted apoptosis”. In addition, the neurosphere growth entry in data set [9] was “significantly reduced”. In the data set with ERβ target genes, the “expression of ERβ target genes” value is “activation of ERβ target genes”. The “invasion and colony formation of U251- ERβ KO cells” value with U251- ERβ KO cells was “no significant effect”. The “effect on viability of ERβ-KO cells” value with U251-ERβ-KO cells is reported as “little to no effect”; in the data set with U251-ERβ-KO cells (listed as CIDD-014987) it was “no/limited effect”. In addition, the “selectivity for ERβ over ERα” value at ERβ [10] came out at 40 fold. Besides, the “mean half-life, terminal elimination phase” value in data set [11] amounted to 9.59 h. The “time to maximum blood concentration” value in [11] is recorded as “less than 15 min”. Also, in the data set on U251 and U87 cells, the long-term colony formation entry was “significantly reduced”. Moreover, the “effect on U251 cell viability” value in the data set with U251 GBM cells is reported as “significantly decreased”.

On to `Oc1ccc([C@H]2COc3cc(O)ccc3C2)cc1` [S-equol], for which the IC50 in the data set on GBM cells [12] is 100 to 200 µM. The brain penetration result in data set [13] was “lacks brain penetration”.
